Measurements from paper PMC11357100 (2024).

How the values were obtained:
Test in all cases: UV melting at 295 nm
[1] = system: c-KIT1 (DNA, G4) AGGGAGGGCGCTGGGAGGAGGG; conditions: 10 mM KCl, 90 mM LiCl; 10 mM Tris-HCl pH 7.2; 2 µM DNA, 3 equiv. ligand; Tm 52.9 ± 1.0 to 54.40 ± 0.60
[2] = system: RET (DNA, G4) GGGGCGGGGCGGGGCGGGGT; conditions: 10 mM KCl, 90 mM LiCl; 10 mM Tris-HCl pH 7.2; 2 µM DNA, 3 equiv. ligand; Tm 75.30 ± 0.80 to 76.4 ± 1.2
[3] = system: catG4 (DNA, G4) TGGGTAGGGCGGGTTGGGAAA; conditions: 10 mM KCl, 90 mM LiCl; 10 mM Tris-HCl pH 7.2; 2 µM DNA, 3 equiv. ligand; Tm 63.30 ± 0.10 to 62.80 ± 0.30
[4] = system: c-MYC (DNA, G4) TGAGGGTGGGTAGGGTGGGTAA; conditions: 10 mM KCl, 90 mM LiCl; 10 mM Tris-HCl pH 7.2; 2 µM DNA, 3 equiv. ligand; Tm 79.10 ± 0.10 to 80.6 ± 1.7

COc1nc2c(N)ncnc2[n+]2ccccc12
ΔTm [1]: 1.5 °C
ΔTm [2]: 1.1 °C
ΔTm [3]: -0.5 °C
ΔTm [4]: 1.5 °C
